From PMC6882492, “Synthesis and biological evaluation of novel thienopyrimidine derivatives as diacylglycerol acyltransferase 1 (DGAT-1) inhibitors” (Journal of Enzyme Inhibition and Medicinal Chemistry, 2019) come the findings set out here.

The target of data set [1] is T1, hACAT1 (Homo sapiens, UniProt P35610).
T1 sequence (P35610 1-550): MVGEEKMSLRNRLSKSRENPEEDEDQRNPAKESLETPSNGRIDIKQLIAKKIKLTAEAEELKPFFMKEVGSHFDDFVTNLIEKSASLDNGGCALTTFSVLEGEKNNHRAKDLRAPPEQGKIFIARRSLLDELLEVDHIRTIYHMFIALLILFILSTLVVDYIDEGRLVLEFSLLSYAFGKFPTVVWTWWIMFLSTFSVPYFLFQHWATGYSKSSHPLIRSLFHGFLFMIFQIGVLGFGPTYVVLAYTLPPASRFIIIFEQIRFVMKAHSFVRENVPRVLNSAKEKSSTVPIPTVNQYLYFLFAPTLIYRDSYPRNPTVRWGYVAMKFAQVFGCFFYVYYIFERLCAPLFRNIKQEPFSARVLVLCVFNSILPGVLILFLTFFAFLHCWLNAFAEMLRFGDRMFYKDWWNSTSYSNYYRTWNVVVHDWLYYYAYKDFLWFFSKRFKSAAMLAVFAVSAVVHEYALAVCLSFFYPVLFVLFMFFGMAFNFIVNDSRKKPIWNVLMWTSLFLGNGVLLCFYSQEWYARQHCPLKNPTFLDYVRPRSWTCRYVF
As to the kind of experiment: Enzymatic assay hACAT1. Type of data set: biochemical. An excerpt: (§1) ACATs have sequence homology to DGAT-1 and play essential roles in cholesterol homeostasis. 17b was not explored in the enzymatic assays due to its poor pharmacokinetic profile.

The target of data set [2] is T2, human recombinant DGAT1 enzyme expressed in insect cells (SF9 cells) (Homo sapiens, UniProt O75907).
T2 construct: made in house; host or cells: SF9 insect cells (microsomal membrane fraction)
T2 sequence (O75907 1-488): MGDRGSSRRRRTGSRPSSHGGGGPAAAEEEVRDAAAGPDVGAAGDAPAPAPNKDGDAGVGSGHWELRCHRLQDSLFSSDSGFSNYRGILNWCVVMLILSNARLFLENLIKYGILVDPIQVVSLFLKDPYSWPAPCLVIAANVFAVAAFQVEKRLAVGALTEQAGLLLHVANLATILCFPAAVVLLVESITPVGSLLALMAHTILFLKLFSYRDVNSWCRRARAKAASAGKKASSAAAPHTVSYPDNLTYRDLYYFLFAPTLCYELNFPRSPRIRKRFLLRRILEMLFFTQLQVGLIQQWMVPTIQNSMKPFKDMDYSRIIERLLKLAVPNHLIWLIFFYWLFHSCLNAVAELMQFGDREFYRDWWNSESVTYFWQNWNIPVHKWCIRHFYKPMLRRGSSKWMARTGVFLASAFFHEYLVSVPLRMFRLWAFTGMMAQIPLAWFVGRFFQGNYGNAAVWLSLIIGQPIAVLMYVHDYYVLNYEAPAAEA
As to the kind of experiment: DGAT-1 inhibition assay (IC50), SF9 microsomes. Type of data set: biochemical. The note with it: SF9 insect cells expressing human DGAT-1. The protocol: The activity of DGAT-1 inhibitors in vitro was evaluated by using a human recombinant DGAT1 enzyme expressed in insect cells (SF9 cells). SF9 cells were homogenised by washing them with DPBS (Dulbecco’s phosphate-buffered saline) and then suspending cell pellets with a tris buffer (250 mM sucrose; 10 mM Tris-HCl [pH 7.4]; proteinase inhibitor). The resulting mixture was centrifugally separated at 10,000 × g for 30 min to remove the cell debris remaining in the lower layer thereof, and was centrifugally separated at 100,000 × g for 60 min to obtain a microsomal membrane. Further, membrane fractions were resuspended by the tris buffer, and then stored at -80 °C.
The activity of DGAT1 was measured according to the reported method. Specifically, 0.0001 – 10 μΜ (final concentration, FC) of the test compounds were cultured at room temperature (25 °C) for 15 min with a […] of SF9 microsomal protein solution and 100 mM of MgCl2 solution, and were then further cultured at room temperature (25 °C) for 30 min after the addition of 100 μΜ (FC in 12.5% EtOH) of 1,2-dioleyl-sn-glycerol and 30 μΜ (final conc.) of [14]C-oleyl coenzyme A. The reaction was completed by the addition of 300 μL of a mixed solution of 2-propanol/heptane (7:1), and radioactive triglyceride was separated from an organic solvent layer by using 200 μL of heptane and 200 μL of a 0.1 M carbonate buffer (pH 9.5). The amount of triglyceride was measured by liquid scintillography (Perkin Elmer, USA) after mixing with an organic solvent and an equivalent amount of scintillation solvent (MicroScint-O, Perkin Elmer, USA). The effects of inhibiting DGAT1 were calculated as percent in comparison with a control material.
The activities of synthesised compounds were evaluated using SF9 insect cells expressing human DGAT-1[22]. A potent DGAT-1 inhibitor, LCQ-908 (2 or pradigastat) was used as a positive control. […] The calculated lowest energy conformation model of 14c provided that the distance between the terminal carboxylic acid and NH of urea was over 16 Å, which may result in reduced activity. […]

Data set [3] deals with T3, hDGAT2 (Homo sapiens, UniProt Q96PD7).
T3 sequence (Q96PD7 1-388): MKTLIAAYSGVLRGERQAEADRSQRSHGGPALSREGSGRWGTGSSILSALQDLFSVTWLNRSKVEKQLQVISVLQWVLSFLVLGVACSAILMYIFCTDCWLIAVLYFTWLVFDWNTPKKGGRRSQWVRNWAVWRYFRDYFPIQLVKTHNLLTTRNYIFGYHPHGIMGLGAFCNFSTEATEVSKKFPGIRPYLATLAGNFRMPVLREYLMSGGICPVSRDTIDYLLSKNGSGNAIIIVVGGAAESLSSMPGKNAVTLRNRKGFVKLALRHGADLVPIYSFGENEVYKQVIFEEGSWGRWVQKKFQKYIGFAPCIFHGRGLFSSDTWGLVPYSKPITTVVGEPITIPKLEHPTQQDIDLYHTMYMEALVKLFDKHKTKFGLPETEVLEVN
As to the kind of experiment: Enzymatic assay hDGAT2. Type of data set: biochemical.
Text: as §1

Data set [4] addresses T4, hACAT2 (Homo sapiens, UniProt O75908).
T4 sequence (O75908 1-522): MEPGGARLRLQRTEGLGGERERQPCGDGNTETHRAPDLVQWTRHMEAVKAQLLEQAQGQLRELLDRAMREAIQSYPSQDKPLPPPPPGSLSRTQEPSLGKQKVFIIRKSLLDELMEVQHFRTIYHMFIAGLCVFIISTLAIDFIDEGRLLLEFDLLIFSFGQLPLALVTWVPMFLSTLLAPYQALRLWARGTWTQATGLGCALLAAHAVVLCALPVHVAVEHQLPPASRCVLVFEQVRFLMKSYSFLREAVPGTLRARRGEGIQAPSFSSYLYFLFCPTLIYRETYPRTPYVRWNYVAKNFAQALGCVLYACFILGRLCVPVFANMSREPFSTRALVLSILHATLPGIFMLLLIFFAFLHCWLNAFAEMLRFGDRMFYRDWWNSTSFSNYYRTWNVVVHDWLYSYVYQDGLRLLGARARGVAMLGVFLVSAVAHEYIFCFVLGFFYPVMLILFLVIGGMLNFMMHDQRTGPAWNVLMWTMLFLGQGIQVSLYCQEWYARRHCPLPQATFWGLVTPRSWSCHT
As to the kind of experiment: Enzymatic assay hACAT2. Type of data set: biochemical.
Text: as §1

Data set [5] in a line: Tissue distribution in mice. To be noted: ICR mice, 30 mg/kg oral, n = 3. Type of data set: in vivo. The protocol:
In addition, tissue distribution of 17a was investigated. 17a was orally administered to mice at 30 mg/kg, and 2 was administrated as a positive control (Figure 5). […] Significant activity of 17a in the OLTT appeared to result from high concentration in the small intestine, even though bioavailability of 17a was not great in mice.
Figure 5. Tissue distribution of 17a in mice. 17a and 2 were orally administered to ICR mice at 30 mg/kg (n = 3). (a) AUC values of 17a and 2 in indicated tissues. […] Data represent mean value. (b) Tissue-to-plasma (T/P) ratio of 17a and 2. S.I.: small intestine, L.I.: large intestine.

In data set [6] the target is T5, hDGAT1 (Homo sapiens, UniProt O75907).
T5 sequence (O75907 1-488): T2 sequence (O75907 1-488)
As to the kind of experiment: Enzymatic assay hDGAT1. The format is biochemical.
Text: as §1

Data set [7] is described as follows: Pharmacokinetic profile in ICR mice. To be noted: mouse, in vivo.

Some results are limits rather than exact numbers.

On to `O=C(O)C[C@H]1CC[C@H](c2ccc(-c3ccc(Nc4ccc(C(F)(F)F)nc4)cn3)cc2)CC1` [Compound 2, pradigastat, reference compound], for which the half-maximal inhibitory concentration (IC50) is greater than 10000 nM in data set [1]; 157 nM in data set [2]; greater than 10000 nM in data set [3]; greater than 10000 nM in data set [4]; 57 nM in data set [6]. Besides, the “Tissue distribution (concentration levels in tissues)” value in data set [5] was “much high concentrations in the liver and large intestine”.

For `O=C([O-])C[C@H]1CC[C@H](c2csc3c(-c4ccc(NC(=O)Nc5cccc(Cl)c5)cc4)ncnc32)CC1.[Na+]` [Compound 17b, Sodium trans-2–(4–(4-(4-(3–(3-chlorophenyl)ureido)phenyl)thieno[3,2-d]pyrimidin-7-yl)cyclohexyl)acetate], the bioavailability in data set [7] (oral 10 mg/kg vs iv 3 mg/kg) was determined as 0.7%. In data set [7] (oral 10 mg/kg, n = 3), the peak concentration (Cmax) worked out at 74.8 ng/mL and the half-life was 5.2 h. Moreover, the AUC in data set [7] (oral 10 mg/kg, n = 3, read-out: AUC 0∼24) came to 234 ng·h/mL. Moreover, the half-inhibitory concentration (IC50) in data set [2] turned out to be 89 nM.
